# Measured values taken from patent US20240101546A1, “HETEROARYL-ACETYLENES, PHARMACEUTICAL COMPOSITIONS THEREOF, AND THEIR THERAPEUTIC APPLICATIONS” (Eubulus Biotherapeutics Inc., priority 2020, published 2024).
# Test system: lung cancer cell line NCI-H82
# Assay: Cell proliferation assay, NCI-H82 (CELL-TITER GLO)
# Assay type: cell-based
# Conditions: Homo sapiens, NCI-H82, 72 h, NCI-H82 cells, 72 h incubation, cell viability by CELL-TITER GLO, top concentration 1 μM; read-out: EC50, Inhibition of NCl-H82 Cell Proliferation
# Description: The activity of a compound was determined in a cell proliferation assay using the lung cancer cell line NCI-H82. Cells (1,000 cells per well) were cultured with RPMI1640 in a 384-well tissue culture plate. After incubated overnight, the compound was added at predetermined concentrations, starting with 1 μM and followed by a 3-fold serial dilution. After the cells were incubated for 72 h, cell viability was determined using a CELL-TITER GLO assay. The CELL-TITER GLO reagent (25 μL) was added to each well and the luminescence was measured by a multimode microplate reader after a brief period of shaking. EC50 values were determined for the compound. The results are summarized in Table 1, wherein A represents a value no greater than 200 nM, B represents a value greater than 200 nM but no greater than 1 μM, C represents a value greater than 1 μM but no greater than […], and D represents a value greater than 5 μM.
row,EC50 [nM],SMILES
1,≤ 200,"C#Cc1nc(NC(=O)N[C@@H](CO)c2ccc(-c3ccccc3C#N)cn2)cs1 [Compound A45, (R)-1-(1-(5-(2-Cyanophenyl)pyridin-2-yl)-2-hydroxyethyl)-3-(2-ethynylthiazol-4-yl)urea]"
2,≤ 200,"C#Cc1nc(NC(=O)N[C@@H](COC(N)=O)c2ccc(-c3ccccc3C#N)cc2)cs1 [Compound A46, (R)-2-(2′-Cyano-[1,1′-biphenyl]-4-yl)-2-(3-(2-ethynylthiazol-4-yl)ureido)ethyl carbamate]"
3,≤ 200,"C#Cc1nc(NC(=O)N[C@@H](COC(N)=O)c2ccc(-c3ncccc3C#N)cc2)cs1 [Compound A47, (R)-2-(4-(3-Cyanopyridin-2-yl)phenyl)-2-(3-(2-ethynylthiazol-4-yl)ureido)ethyl carbamate]"
4,≤ 200,"C#Cc1nc(NC(=O)N[C@@H](COC(N)=O)c2ccc(-c3cc(C#N)ccn3)cc2)cs1 [Compound A48, (R)-2-(4-(4-Cyanopyridin-2-yl)phenyl)-2-(3-(2-ethynylthiazol-4-yl)ureido)ethyl carbamate]"
5,≤ 200,"C#Cc1nc(NC(=O)N[C@@H](COC(N)=O)c2ccc(-c3cccc4ccncc34)cc2)cs1 [Compound A49, (R)-2-(3-(2-Ethynylthiazol-4-yl)ureido)-2-(4-(isoquinolin-8-yl)phenyl)ethyl carbamate]"
6,≤ 200,"C#Cc1nc(NC(=O)N[C@@H](COC(N)=O)c2ccc(-c3cccc4cncnc34)cc2)cs1 [Compound A50, (R)-2-(3-(2-Ethynylthiazol-4-yl)ureido)-2-(4-(quinazolin-8-yl)phenyl)ethyl carbamate]"
7,≤ 200,"C#Cc1nc(NC(=O)N[C@@H](COC(N)=O)c2ccc(-c3cccc4nccnc34)cc2)cs1 [Compound A51, (R)-2-(3-(2-Ethynylthiazol-4-yl)ureido)-2-(4-(quinoxalin-5-yl)phenyl)ethyl carbamate]"
8,≤ 200,"C#Cc1nc(NC(=O)N[C@@H](CO)c2ccc(-c3c(C#N)ccc4cccnc34)cc2)cs1 [Compound A52, (R)-1-(1-(4-(7-Cyanoquinolin-8-yl)phenyl)-2-hydroxyethyl)-3-(2-ethynylthiazol-4-yl)urea]"
9,≤ 200,"C#Cc1nc(NC(=O)N[C@@H](CO)c2ccc(-c3cccc4c3c(C#N)nn4C)cc2)cs1 [Compound A53, (R)-1-(1-(4-(3-Cyano-1-methyl-1H-indazol-4-yl)phenyl)-2-hydroxyethyl)-3-(2-ethynylthiazol-4-yl)urea]"
10,≤ 200,"C#Cc1nc(NC(=O)N[C@@H](CO)c2ccc(-c3ccccc3C3(C#N)CC3)cc2)cs1 [Compound A54, (R)-1-(1-(2′-(1-Cyanocyclopropyl)-[1,1′-biphenyl]-4-yl)-2-hydroxyethyl)-3-(2-ethynylthiazol-4-yl)urea]"
11,≤ 200,"C#Cc1nc(NC(=O)N[C@@H](COC(N)=O)c2ccc(-c3ccccc3C3(C#N)CC3)cc2)cs1 [Compound A55, (R)-2-(2′-(1-Cyanocyclopropyl)-[1,1′-biphenyl]-4-yl)-2-(3-(2-ethynylthiazol-4-yl)ureido)ethyl carbamate]"
12,≤ 200,"C#Cc1nc(NC(=O)N[C@@H](COC(N)=O)c2ccc(-c3cccc(C4(C#N)CC4)n3)cc2)cs1 [Compound A56, (R)-2-(4-(6-(1-Cyanocyclopropyl)pyridin-2-yl)phenyl)-2-(3-(2-ethynylthiazol-4-yl)ureido)ethyl carbamate]"
13,≤ 200,"C#Cc1nc(NC(=O)N[C@@H](COC(N)=O)c2ccc(-c3cc(C4(C#N)CC4)ccn3)cc2)cs1 [Compound A57, (R)-2-(4-(4-(1-Cyanocyclopropyl)pyridin-2-yl)phenyl)-2-(3-(2-ethynylthiazol-4-yl)ureido)ethyl carbamate]"
14,≤ 200,"C#Cc1nc(NC(=O)N[C@@H](COC(N)=O)c2ccc(-c3ncccc3C3(C#N)CC3)cc2)cs1 [Compound A58, (R)-2-(4-(3-(1-Cyanocyclopropyl)pyridin-2-yl)phenyl)-2-(3-(2-ethynylthiazol-4-yl)ureido)ethyl carbamate]"
15,≤ 200,"C#Cc1nc(NC(=O)N[C@@H](CO)c2ccc(-c3ccccc3C3(C#N)CC3)nc2)cs1 [Compound A59, (R)-1-(1-(6-(2-(1-Cyanocyclopropyl)phenyl)pyridin-3-yl)-2-hydroxyethyl)-3-(2-ethynylthiazol-4-yl)urea]"
16,≤ 200,"C#Cc1nc(NC(=O)N[C@@H](COC(N)=O)c2ccc(-c3ccccc3C3(C#N)CC3)cn2)cs1 [Compound A60, (R)-2-(5-(2-(1-Cyanocyclopropyl)phenyl)pyridin-2-yl)-2-(3-(2-ethynylthiazol-4-yl)ureido)ethyl carbamate]"

row,EC50 [nM],SMILES
1,≤ 200,"C#Cc1nc(NC(=O)N[C@H](COC(N)=O)c2ccc(-c3ccccc3C3(C#N)CC3)cn2)cs1 [Compound A61, (S)-2-(5-(2-(1-Cyanocyclopropyl)phenyl)pyridin-2-yl)-2-(3-(2-ethynylthiazol-4-yl)ureido)ethyl carbamate]"
2,≤ 200,"C#Cc1nc(NC(=O)N[C@@H](CO)c2ccc(-c3cccnc3C3(C#N)CC3)cc2)cs1 [Compound A62, (R)-1-(1-(4-(2-(1-Cyanocyclopropyl)pyridin-3-yl)phenyl)-2-hydroxyethyl)-3-(2-ethynylthiazol-4-yl)urea]"
3,≤ 200,"C#Cc1nc(NC(=O)N[C@@H](COC(N)=O)c2ccc(-c3cccnc3C3(C#N)CC3)cc2)cs1 [Compound A63, (R)-2-(4-(2-(1-Cyanocyclopropyl)pyridin-3-yl)phenyl)-2-(3-(2-ethynylthiazol-4-yl)ureido)ethyl carbamate]"
4,≤ 200,"C#Cc1nc(NC(=O)N[C@@H](CO)c2ccc(-c3cc(F)cnc3C3(C#N)CC3)cc2)cs1 [Compound A64, (R)-1-(1-(4-(2-(1-Cyanocyclopropyl)-5-fluoropyridin-3-yl)phenyl)-2-hydroxy-ethyl)-3-(2-ethynylthiazol-4-yl)urea]"
5,≤ 200,"C#Cc1nc(NC(=O)N[C@@H](CO)c2ccc(-c3cccnc3C3(C#N)CC3)c(Cl)c2)cs1 [Compound A65, (R)-1-(1-(3-Chloro-4-(2-(1-cyanocyclopropyl)pyridin-3-yl)phenyl)-2-hydroxy-ethyl)-3-(2-ethynylthiazol-4-yl)urea]"
6,≤ 200,"C#Cc1nc(NC(=O)N[C@H](CO)c2ccc(-c3cccnc3C3(C#N)CC3)c(Cl)c2)cs1 [Compound A66, (S)-1-(1-(3-Chloro-4-(2-(1-cyanocyclopropyl)pyridin-3-yl)phenyl)-2-hydroxy-ethyl)-3-(2-ethynylthiazol-4-yl)urea]"
7,≤ 200,"C#Cc1nc(NC(=O)N(C)[C@@H](CO)c2ccc(-c3cccnc3C3(C#N)CC3)c(Cl)c2)cs1 [Compound A67, (R)-1-(1-(3-Chloro-4-(2-(1-cyanocyclopropyl)pyridin-3-yl)phenyl)-2-hydroxy-ethyl)-3-(2-ethynylthiazol-4-yl)-1-methylurea]"
8,≤ 200,"C#Cc1nc(NC(=O)N[C@@H](CO)c2ccc(-c3cccnc3C3(C#N)CC3)c(F)c2)cs1 [Compound A68, (R)-1-(1-(4-(2-(1-Cyanocyclopropyl)pyridin-3-yl)-3-fluorophenyl)-2-hydroxy-ethyl)-3-(2-ethynylthiazol-4-yl)urea]"
9,≤ 200,"C#Cc1nc(NC(=O)N[C@@H](COC(N)=O)c2ccc(-c3cccnc3C3(C#N)CC3)c(Cl)c2)cs1 [Compound A69, (R)-2-(3-Chloro-4-(2-(1-cyanocyclopropyl)pyridin-3-yl)phenyl)-2-(3-(2-ethynyl-thiazol-4-yl)ureido)ethyl carbamate]"
10,≤ 200,"C#Cc1nc(NC(=O)N(C)[C@@H](COC(N)=O)c2ccc(-c3cccnc3C3(C#N)CC3)c(Cl)c2)cs1 [Compound A70, (R)-2-(3-Chloro-4-(2-(1-cyanocyclopropyl)pyridin-3-yl)phenyl)-2-(3-(2-ethynyl-thiazol-4-yl)-1-methylureido)ethyl carbamate]"
11,≤ 200,"C#Cc1nnc(NC(=O)N[C@@H](CO)c2ccc(-c3cccnc3C3(C#N)CC3)c(Cl)c2)s1 [Compound A71, (R)-1-(1-(3-Chloro-4-(2-(1-cyanocyclopropyl)pyridin-3-yl)phenyl)-2-hydroxy-ethyl)-3-(5-ethynyl-1,3,4-thiadiazol-2-yl)urea]"
12,≤ 200,"C#Cc1nc(NC(=O)N[C@@H](CS(C)(=O)=O)c2ccc(-c3cccnc3C3(C#N)CC3)c(Cl)c2)cs1 [Compound A72, (R)-1-(1-(3-Chloro-4-(2-(1-cyanocyclopropyl)pyridin-3-yl)phenyl)-2-(methyl-sulfonyl)ethyl)-3-(2-ethynylthiazol-4-yl)urea]"
13,≤ 200,"C#Cc1nc(NC(=O)N[C@@H](CS(N)(=O)=O)c2ccc(-c3cccnc3C3(C#N)CC3)c(Cl)c2)cs1 [Compound A73, (R)-2-(3-Chloro-4-(2-(1-cyanocyclopropyl)pyridin-3-yl)phenyl)-2-(3-(2-ethynyl-thiazol-4-yl)ureido)ethanesulfonamide]"
14,≤ 200,"C#Cc1nc(NC(=O)N[C@@H](C(=O)NC)c2ccc(-c3cccnc3C3(C#N)CC3)c(Cl)c2)cs1 [Compound A74, (R)-2-(3-Chloro-4-(2-(1-cyanocyclopropyl)pyridin-3-yl)phenyl)-2-(3-(2-ethynyl-thiazol-4-yl)ureido)-N-methylacetamide]"
15,≤ 200,"C#Cc1nc(NC(=O)N[C@@H](CO)c2ccc(-c3ccc(F)cc3C3(C#N)CC3)cn2)cs1 [Compound A75, (R)-1-(1-(5-(2-(1-Cyanocyclopropyl)-4-fluorophenyl)pyridin-2-yl)-2-hydroxy-ethyl)-3-(2-ethynylthiazol-4-yl)urea]"
16,≤ 200,"C#Cc1nc(NC(=O)N[C@@H](COC(N)=O)c2ccc(-c3ccc(F)cc3C3(C#N)CC3)cn2)cs1 [Compound A76, (R)-2-(5-(2-(1-Cyanocyclopropyl)-4-fluorophenyl)pyridin-2-yl)-2-(3-(2-ethynyl-thiazol-4-yl)ureido)ethyl carbamate]"
